Measurements reported in ChEMBL document CHEMBL1125004, “Chemistry and pharmacology of the non-benzodiazepine anxiolytic enciprazine and related compounds” (1990).
The source made the active and inactive calls. No cut-off for these calls is given here.

Assays:
Mus musculus [1] = species: Mus musculus; assay: Effect on alcohol induced sleep was determined in ethanol potentiation test; Range; format: functional
Mus musculus [2] = species: Mus musculus; assay: Effect on hexobarbital induced sleep was determined in hexobarbital potentiation test; Range; format: functional
Mus musculus [3] = assay: Antiaggressive anxiolytic activity in the electroshock-induced fighting test in mice (po); Range (10.32-18.72); format: functional
Mus musculus [4] = species: Mus musculus; assay: Ataxic activity in mice by rotarod test; Range (64.3-92.1); format: functional
[5] = Ratio of ED50 (ethanol) to that of ED50 (fighting); format: functional
[6] = Ratio of ED50 (hexobarbital) to that of ED50 (fighting); format: functional
[7] = Ratio of ED50 (rotarod) to that of ED50 (fighting); format: functional
Monkey [8] = assay: Tested for ability to maintain self-administration after administration of 0.3 mg/kg in monkey 3038 (1-2); format: functional, Cercopithecidae
Monkey [9] = assay: Tested for ability to maintain self-administration after administration of 0.3 mg/kg in monkey 9079 (0-2); format: functional, Cercopithecidae
Monkey [10] = assay: Tested for ability to maintain self-administration after administration of 0.3 mg/kg in monkey 9083 (1-4); format: functional, Cercopithecidae
Monkey [11] = assay: Tested for ability to maintain self-administration after administration of 1 mg/kg in monkey 9079 (0-3); format: functional, Cercopithecidae
Monkey [12] = assay: Tested for ability to maintain self-administration after administration of 0.3 mg/kg in monkey 3017 (0-1); format: functional, Cercopithecidae
Monkey [13] = assay: Tested for ability to maintain self-administration after administration of 0.003 mg/kg in monkey 2036 Range (5-9); format: functional, Cercopithecidae
Monkey [14] = assay: Tested for ability to maintain self-administration after administration of 0.003 mg/kg in monkey 2037 Range (2-6); format: functional, Cercopithecidae
Monkey [15] = assay: Tested for ability to maintain self-administration after administration of 0.003 mg/kg in monkey 3017 Range (1-2); format: functional, Cercopithecidae
Monkey [16] = assay: Tested for ability to maintain self-administration after administration of 0.003 mg/kg in monkey 3038 Range (1-7); format: functional, Cercopithecidae
Monkey [17] = assay: Tested for ability to maintain self-administration after administration of 0.003 mg/kg in monkey 9079 Range (1-6); format: functional, Cercopithecidae
Monkey [18] = assay: Tested for ability to maintain self-administration after administration of 0.003 mg/kg in monkey 9083 Range (13-21); format: functional, Cercopithecidae
Monkey [19] = assay: Tested for ability to maintain self-administration after administration of 0.01 mg/kg in monkey 9079 Range (1-3); format: functional, Cercopithecidae
Monkey [20] = assay: Tested for ability to maintain self-administration after administration of 0.03 mg/kg in monkey 2036 Range (2-3); format: functional, Cercopithecidae
Monkey [21] = assay: Tested for ability to maintain self-administration after administration of 0.03 mg/kg in monkey 2037 Range (7-9); format: functional, Cercopithecidae
Monkey [22] = assay: Tested for ability to maintain self-administration after administration of 0.03 mg/kg in monkey 3017 Range (1-7); format: functional, Cercopithecidae
Monkey [23] = assay: Tested for ability to maintain self-administration after administration of 0.03 mg/kg in monkey 3038 Range (1-10); format: functional, Cercopithecidae
Monkey [24] = assay: Tested for ability to maintain self-administration after administration of 0.03 mg/kg in monkey 9079 Range (2-24); format: functional, Cercopithecidae
Monkey [25] = assay: Tested for ability to maintain self-administration after administration of 0.03 mg/kg in monkey 9083 Range (7-11); format: functional, Cercopithecidae
Monkey [26] = assay: Tested for ability to maintain self-administration after administration of 0.3 mg/kg in monkey 2036 (1-5); format: functional, Cercopithecidae
Monkey [27] = assay: Tested for ability to maintain self-administration after administration of 0.001 mg/kg in monkey 3038 Range (2-5); format: functional, Cercopithecidae
Monkey [28] = assay: Tested for ability to maintain self-administration after administration of 0.3 mg/kg in monkey 2037 (0-4); format: functional, Cercopithecidae
Mus musculus [29] = assay: Antiaggressive anxiolytic activity in the electroshock-induced fighting test in mice (po); Range (9.7-19.3); format: functional
Mus musculus [30] = assay: Antiaggressive anxiolytic activity in the electroshock-induced fighting test in mice (po); Range (14.7-24.8); format: functional
Rattus norvegicus [31] = assay: Effect on piloerection after oral administration of 10 mg/kg in rat was determined; '+' weak effect; format: functional, organism-based; design: dose 10 mg/kg
Rattus norvegicus [32] = assay: Effect on piloerection after oral administration of 20 mg/kg in rat was determined; '++' strong effect; format: functional, organism-based; design: dose 20 mg/kg
Rattus norvegicus [33] = assay: Effect on restlessness after oral administration of 10 mg/kg in rat was determined; '+' weak effect; format: functional, organism-based; design: dose 10 mg/kg
Rattus norvegicus [34] = assay: Effect on restlessness after oral administration of 20 mg/kg in rat was determined; +' weak effect; format: functional, organism-based; design: dose 20 mg/kg
Rattus norvegicus [35] = assay: Effect on salivation after oral administration of 10 mg/kg in rat was determined; '-' No effect; format: functional, organism-based; design: dose 10 mg/kg
Rattus norvegicus [36] = assay: Effect on jumping after oral administration of 10 mg/kg in rat was determined; '-' No effect; format: functional, organism-based; design: dose 10 mg/kg
Rattus norvegicus [37] = assay: Effect on jumping after oral administration of 20 mg/kg in rat was determined; +' weak effect; format: functional, organism-based; design: dose 20 mg/kg
Rattus norvegicus [38] = assay: Effect on diarrhea after oral administration of 10 mg/kg in rat was determined; '+' weak effect; format: functional, organism-based; design: dose 10 mg/kg
Rattus norvegicus [39] = assay: Effect on diarrhea after oral administration of 20 mg/kg in rat was determined; '++' strong effect; format: functional, organism-based; design: dose 20 mg/kg
Rattus norvegicus [40] = assay: Effect on salivation after oral administration of 20 mg/kg in rat was determined; +' weak effect; format: functional, organism-based; design: dose 20 mg/kg
Rattus norvegicus [41] = assay: Effect on tremor after oral administration of 10 mg/kg in rat was determined; '-' No effect; format: functional, organism-based; design: dose 10 mg/kg
Rattus norvegicus [42] = assay: Effect on tremor after oral administration of 20 mg/kg in rat was determined; +' weak effect; format: functional, organism-based; design: dose 20 mg/kg
Mus musculus [43] = species: Mus musculus; assay: animal or person
Description: Effect on alcohol induced sleep was determined in ethanol potentiation test; Range (0.41-1.79)

Mus musculus [44] = species: Mus musculus; assay: animal or person; remark: listed apart in the source
Mus musculus [45] = species: Mus musculus; assay: animal or person; conditions: po
Mus musculus [46] = species: Mus musculus; assay: animal or person; remark: listed apart in the source
Description: Ataxic activity in mice by rotarod test; Range (2.99-5.35)

Which results are given for `O=C1CC2(CCCC2)CC(=O)N1CCCCN1CCN(c2ncccn2)CC1` [BUSPIRONE]?
ED50 (Mus musculus [1]): 62.8 mg/kg; ED50 (Mus musculus [2]): 54.5 mg/kg; ED50 (Mus musculus [3]): 14.5 mg/kg; ED50 (Mus musculus [4]): 77 mg/kg; Therapeutic index [5]: 0.8; Therapeutic index [6]: 0.7; Therapeutic index [7]: 5.3

Which Effect (Monkey [8]) does the source give for `COc1ccccc1N1CCN(CC(O)COc2cc(OC)c(OC)c(OC)c2)CC1` (centres undefined) [ENCIPRAZINE] here?
The Effect was 1.3.

What about the Effect (Monkey [9]) of the same molecule?
The Effect was 1.

What about the Effect (Monkey [10]) of the same molecule?
Its Effect is 2.7.

And the Effect (Monkey [11])?
Its Effect is 1.3.

And the Effect (Monkey [12])?
Its Effect is 0.3.

And the Effect (Monkey [13])?
Its Effect is 7.

And the Effect (Monkey [14])?
The Effect was 4.3.

What about the Effect (Monkey [15]) of the same molecule?
Its Effect is 1.7.

What about the Effect (Monkey [16]) of the same molecule?
Its Effect is 4.

What about the Effect (Monkey [17]) of the same molecule?
The Effect was 3.

What about the Effect (Monkey [18]) of the same molecule?
The Effect was 17.7.

What about the Effect (Monkey [19]) of the same molecule?
Its Effect is 2.

What about the Effect (Monkey [20]) of the same molecule?
Its Effect is 2.3.

And the Effect (Monkey [21])?
Its Effect is 7.7.

And the Effect (Monkey [22])?
The Effect was 4.3.

What about the Effect (Monkey [23]) of the same molecule?
The Effect was 4.3.

What about the Effect (Monkey [24]) of the same molecule?
Its Effect is 13.7.

And the Effect (Monkey [25])?
The Effect was 9.

And the Effect (Monkey [26])?
Its Effect is 3.

What about the Effect (Monkey [27]) of the same molecule?
Its Effect is 3.5.

And the Effect (Monkey [28])?
The Effect was 2.

For `COc1cc(OCC(O)CN2CCN(c3ccccc3SC)CC2)cc(OC)c1OC.Cl` (centres undefined), which ED50 (Mus musculus [29]) is on record?
Its ED50 is 14 mg/kg.

Which ED50 (Mus musculus [30]) does the source give for `CCOc1ccccc1N1CCN(CC(O)COc2cc(OC)c(OC)c(OC)c2)CC1.Cl` (centres undefined) here?
Its ED50 is 19 mg/kg.

Which results are given for `CN1C(=O)CN=C(c2ccccc2)c2cc(Cl)ccc21` [DIAZEPAM]?
Effect (Rattus norvegicus [31]): Partially active; Effect (Rattus norvegicus [32]): Active; Effect (Rattus norvegicus [33]): Partially active; Effect (Rattus norvegicus [34]): Partially active; Effect (Rattus norvegicus [35]): inactive; Effect (Rattus norvegicus [36]): inactive; Effect (Rattus norvegicus [37]): Partially active; Effect (Rattus norvegicus [38]): Partially active; Effect (Rattus norvegicus [39]): Active; Effect (Rattus norvegicus [40]): Partially active; Effect (Rattus norvegicus [41]): inactive; Effect (Rattus norvegicus [42]): Partially active; Therapeutic index [5]: 0.6; Therapeutic index [6]: 2.1; Therapeutic index [7]: 2.9; ED50 (Mus musculus [43]): 0.85 mg/kg; ED50 (Mus musculus [44]): 3 mg/kg; ED50 (Mus musculus [45]): 1.4 mg/kg; ED50 (Mus musculus [46]): 4 mg/kg
